Data reported in patent US5922731A, “5-[(heteroaryl)alkyl]-3-oxo-pyrido[1,2-a]benzimidazole-4-carboxamide derivatives useful in treating central nervous system disorders” (Ortho Pharmaceutical Corporation, priority 1997, dated 1999).

Key:
[1] = tested on: metrazol-induced convulsions; experiment: Suppression of Metrazol-Induced Convulsions in Adult Male Mice; assay type: in vivo, mouse (male CD1); conditions: 0.5 h; mouse, ip; block of clonic convulsions, CD90 dose of metrazol sc, 30 min observation
Procedure: Compounds of the invention were tested for their ability to reduce metrazol-induced convulsions in mice (Swinyard, E. A. J. Am. Pharm Assoc. 1949, 38, 201). Male CD1 mice, were fasted at least 16 hours, were divided into equal groups and test compounds or vehicle were administered parenterally. Water was not withheld except during the period of observations. At the time of suspected peak activity, anti-pentylenetetrazol (anti-metrazol) activity was evaluated by the subcutaneous administration of the CD90 dose of metrazol (the dose of metrazol was determined from the dose-response curve producing clonic convulsions in 90% of animals that received the corresponding vehicle for this experiment). Metrazol was dissolved in 0.9% sodium chloride solution, and its dose volume was 10 mL/kg. Animals were housed individually for observation of clonic convulsions, tonic convulsions and death for a period of 30 min. Test compounds that blocked the clonic seizure component of the convulsion in at least 50% of the animals were considered active. The biological assay was considered to be valid if the effects of a known anticonvulsant (positive control) were detected, within the same experiment. Activity was reported as percent reduction of clonic convulsions from the vehicle group. The ED50 values of active compounds were calculated by the method of probits (Finney, D. J. 1971. Probit Analysis. London: Cambridge University Press) and are listed in Table 1. […] Compounds active in this screen are considered active anticonvulsion/antiepileptic agents.

[2] = molecular target: benzodiazepine site of the GABA-A receptor; experiment: Benzodiazepine Receptor Binding Assay (inhibition of 3H-flunitrazepam binding); conditions: 3H-flunitrazepam ca. 3 nM; 10-20 min at 25° C.
Procedure: Selected compounds, which were prepared according to the experimental details given in the following examples, were tested for binding to the benzodiazepine site of the GABA-A receptor (Williams, M. et al., J. Pharm. Exper. Therap. 1988, 248, 89). The ability of the compounds of the invention to inhibit the binding of flunitrazepam to prepared receptors was assessed. For each sample, membranes from ca. 10 mg of tissue were incubated in a K2 HPO4 -buffered incubation medium (final concentration=2.0 mL). The concentration of ligand (^3 H-flunitrazepam) was ca. 3 nM. Samples were incubated 10-20 min at 25° C., after which the membrane material and bound ligand was collected on glass fiber filter sheets using vacuum filtration. The collected material was washed with 10 mM HEPES buffered solution, and the radioactivity associated with each sample was measured by liquid scintillation spectrometry. The binding of the test drug to the receptor was determined by comparing the amount of radiolabeled ligand bound in control samples to the amount of ligand bound in the presence of the drug. Concentration-response data were analyzed in a variety of ways. The IC50 was usually calculated by transforming the data to a log-logit format, then performing a linear regression analysis. This procedure provides a Hill coefficient as well as the IC50 value. An IC50 value of over 10,000 for a particular compound would indicate that the compound was not active in this screen. This is a general screen and compounds active here are have potential utility for the treatment of one or more disorders of the central nervous system.

[3] = tested on: behavior suppressed by punishment (Rat Conflict); experiment: Suppression of Anxiety in the Adult Male Rat (conflict test); assay type: in vivo; conditions: ip, minimum effective dose, p<0.05 1-tailed vs vehicle, 3-min test session, read-out: Rat Conflict MED
Procedure: The anxiolytic activity of selected compounds of the invention was assessed by determining their ability to release (disinhibit) behavior that had been suppressed by punishment (Vogel, J. R. et al. Psychopharmacology 1971, 21, 1). Male rats were deprived of water for 48 hrs and were deprived of food for 24 hrs prior to testing. After the first 24 hours of water deprivation, they were placed in the conflict chamber for a training period; wherein, they were allowed 200 unpunished licks from a bottle containing tap water. The experiment was run the next day. At the expected time of peak activity, the animals were placed in the chamber and allowed access to tap water. […] Their first lick initiates a 3-min test session. Subsequently,every 20th lick was punished by a 0.2-s shock delivered via the stainless-steel drinking-tube. Vehicle-treated control animals generally were willing to accept a median number of 3 to 8 shocks per test session. […] The Wilcoxon rank-sum test (Mann-WhitneyU-test) was used to test for an increase (p<0.05, 1-tailed) in the median number of shocks in drug-treated groups, compared to a concurrently run vehicle-treated group. The biological assay is considered to be valid if the effects of a known anxiolytic (positive control) are detected, within the same experiment. A compound was considered active if there is a significant difference in the median number of shocks tolerated between the drug-treated group and the control group. The MED was defined as the minimum dose of the drug-treatment as analyzed using the Wilcoxon rank-sum test (SAS; Statistical Analysis System, version 5.16). If the MED value is greater than 10, an active dose of the compound being tested had not been determined.

SMILES	IC50 [2] [nM]	ED50 [1] [mg/kg]	minimal effective dose [3] [mg/kg]
O=C1CCN2C(=C1C(=O)Nc1ccccc1F)N(Cc1c[nH]cn1)c1cc(F)ccc12 [CP# 12, 7-Fluoro-1,2-dihydro-5-[(4-imidazo)methyl]-3-oxo-N-(2-fluorophenyl)pyrido-[1,2-a]benzimidazole-4-carboxamide]	0.29	30	> 10
O=C1CCN2C(=C1C(=O)Nc1ccccc1F)N(CCc1ccccn1)c1cc(F)ccc12 [CP# 15]	0.89	0.3	10
O=C1CCN2C(=C1C(=O)Nc1c(F)cccc1F)N(CCc1cccs1)c1cc(F)ccc12 [CP# 18]	0.61	10	> 10
O=C1CCN2C(=C1C(=O)Nc1ccccc1F)N(CCc1ccsc1)c1cc(F)ccc12 [CP# 20, 7-Fluoro-1,2-dihydro-5-[2-(3-thienyl)ethyl]3-oxo-N-(2-fluorophenyl)pyrido[1,2-a]benzimidazole-4-carboxamide]	0.096	0.1	< 10
O=C1CCN2C(=C1C(=O)Nc1c(F)cccc1F)N(Cc1ccsc1)c1cc(F)ccc12 [CP# 23]	4.24	> 10	> 10
O=C1CCN2C(=C1C(=O)Nc1c(F)cccc1F)N(Cc1ccccn1)c1cc(F)ccc12 [CP# 24]	24.4	3	10
O=C1CCN2C(=C1C(=O)Nc1c(F)cccc1F)N(CCc1ccsc1)c1cc(F)ccc12 [CP# 25]	0.22	3	< 10
O=C1CCN2C(=C1C(=O)Nc1c(F)cccc1F)N(Cc1cccs1)c1cc(F)ccc12 [CP# 26]	2.98	< 10	> 10
O=C1CCN2C(=C1C(=O)Nc1c(F)cccc1F)N(Cc1ccco1)c1cc(F)ccc12 [CP# 27]	1.26	1	> 10
O=C1CCN2C(=C1C(=O)Nc1ccccc1F)N(Cc1ccccn1)c1ccccc12 [CP# 28, 1,2-Dihydro-5-(2-pyridylmethyl)-3-oxo-N-(2-fluorophenyl)pyrido[1,2-a]-benzimidazole-4-carboxamide]	3.77	0.5	< 10
O=C1CCN2C(=C1C(=O)Nc1c(F)cccc1F)N(Cc1ccccn1)c1ccccc12 [CP# 29]	23.9	3	> 10
O=C1CCN2C(=C1C(=O)Nc1ccccc1F)N(Cc1cccnc1)c1ccccc12 [CP# 30]	4.54	10	10

The next lines start with results.

IC50 [2] [nM]	SMILES	ED50 [1] [mg/kg]	minimal effective dose [3] [mg/kg]
0.59	O=C1CCN2C(=C1C(=O)Nc1ccccc1F)N(Cc1ccco1)c1cc(F)ccc12 [CP# 11]	< 10	> 10
5.19	O=C1CCN2C(=C1C(=O)Nc1ccccc1F)N(Cc1ccc[n+]([O-])c1)c1cc(F)ccc12 [CP# 13]	3	> 10
13.4	O=C1CCN2C(=C1C(=O)Nc1ccccc1F)N(Cc1cc[n+]([O-])cc1)c1cc(F)ccc12 [CP# 14]	10	> 10
3.01	O=C1CCN2C(=C1C(=O)Nc1ccccc1F)N(Cc1ccncc1)c1cc(F)ccc12 [CP# 16]	3	> 10
1.27	O=C1CCN2C(=C1C(=O)Nc1ccccc1F)N(Cc1cccnc1)c1cc(F)ccc12 [CP# 17, 7-Fluoro-1,2-dihydro-5-(3-pyridylmethyl)-3-oxo-N-(2-fluorophenyl)pyrido[1,2-a]benzimidazole-4-carboxamide]	1	> 10
0.71	O=C1CCN2C(=C1C(=O)Nc1ccccc1F)N(Cc1ccsc1)c1cc(F)ccc12 [CP# 19, 7-Fluoro-1,2-dihydro-5-[(3-thienyl)methyl]-3-oxo-N-(2-fluorophenyl)pyrido-[1,2-a]benzimidazole-4-carboxamide]	0.7	< 10
0.3	O=C1CCN2C(=C1C(=O)Nc1ccccc1F)N(Cc1cccs1)c1cc(F)ccc12 [CP# 21, 7-Fluoro-1,2-dihydro-5-[(2-thienyl)methyl]-3-oxo-N-(2-fluorophenyl)pyrido-[1,2-a]benzimidazole-4-carboxamide]	< 1	< 10
2.79	O=C1CCN2C(=C1C(=O)Nc1ccccc1F)N(Cc1ccccn1)c1cc(F)ccc12 [CP# 22]	< 1	< 10
